From the NIST ThermoML archive (doi:10.1021/je0201323)
± gives the expanded uncertainty stated by the source.

Assay: xn = mol fraction of the nth substance listed
Details: for mass density: 101.3 kPa, Liquid, vibrating tube; for surface tension liquid-gas: Pendant drop shape

Cc1ccccc1 [toluene] + CCCCCCC
Details | mass density [kg/m3] | surface tension liquid-gas [mN/m]
278.15 K, x2 = 0 | 880.3 ± 0.2 | –
278.15 K, x2 = 0.15 | 843.7 ± 0.3 | –
278.15 K, x2 = 0.299 | 811.3 ± 0.3 | –
278.15 K, x2 = 0.449 | 782 ± 0.3 | –
278.15 K, x2 = 0.595 | 756.4 ± 0.3 | –
278.15 K, x2 = 0.749 | 732.6 ± 0.3 | –
283.15 K, x2 = 0 | 875.9 ± 0.2 | –
283.15 K, x2 = 0.15 | 839.3 ± 0.3 | –
283.15 K, x2 = 0.299 | 807 ± 0.3 | –
283.15 K, x2 = 0.449 | 777.8 ± 0.3 | –
283.15 K, x2 = 0.595 | 752.2 ± 0.3 | –
283.15 K, x2 = 0.749 | 728.4 ± 0.3 | –
287.81 K, x2 = 0 | – | 28.93 ± 0.31
287.81 K, x2 = 0.299 | – | 24.49 ± 0.28
287.81 K, x2 = 0.449 | – | 23.38 ± 0.27
287.81 K, x2 = 0.595 | – | 22.41 ± 0.27
287.81 K, x2 = 0.749 | – | 21.58 ± 0.26
288.15 K, x2 = 0 | 871.4 ± 0.2 | –
288.15 K, x2 = 0.15 | 834.9 ± 0.3 | –
288.15 K, x2 = 0.299 | 802.7 ± 0.3 | –
288.15 K, x2 = 0.449 | 773.5 ± 0.3 | –
288.15 K, x2 = 0.595 | 747.9 ± 0.3 | –
288.15 K, x2 = 0.749 | 724.2 ± 0.3 | –
293.15 K, x2 = 0 | 866.9 ± 0.2 | –
293.15 K, x2 = 0.15 | 830.5 ± 0.3 | –
293.15 K, x2 = 0.299 | 798.3 ± 0.3 | –
293.15 K, x2 = 0.449 | 769.1 ± 0.3 | –
293.15 K, x2 = 0.595 | 743.6 ± 0.3 | –
293.15 K, x2 = 0.749 | 719.9 ± 0.3 | –
297.82 K, x2 = 0 | – | 27.76 ± 0.3
297.82 K, x2 = 0.15 | – | 25.16 ± 0.28
297.82 K, x2 = 0.299 | – | 23.47 ± 0.27
297.82 K, x2 = 0.449 | – | 22.17 ± 0.26
297.82 K, x2 = 0.595 | – | 21.35 ± 0.26
297.82 K, x2 = 0.749 | – | 20.56 ± 0.25
298.15 K, x2 = 0 | 862.4 ± 0.2 | –
298.15 K, x2 = 0.15 | 826 ± 0.3 | –
298.15 K, x2 = 0.299 | 794.1 ± 0.3 | –
298.15 K, x2 = 0.449 | 764.7 ± 0.3 | –
298.15 K, x2 = 0.595 | 739.2 ± 0.3 | –
298.15 K, x2 = 0.749 | 715.6 ± 0.3 | –
303.15 K, x2 = 0 | 857.8 ± 0.2 | –
303.15 K, x2 = 0.15 | 821.5 ± 0.3 | –
303.15 K, x2 = 0.299 | 789.4 ± 0.3 | –
303.15 K, x2 = 0.449 | 760.3 ± 0.3 | –
303.15 K, x2 = 0.595 | 734.8 ± 0.3 | –
303.15 K, x2 = 0.749 | 711.2 ± 0.3 | –
307.86 K, x2 = 0 | – | 26.6 ± 0.29
307.86 K, x2 = 0.15 | – | 24.08 ± 0.27
307.86 K, x2 = 0.299 | – | 22.42 ± 0.26
307.86 K, x2 = 0.449 | – | 21.23 ± 0.25
307.86 K, x2 = 0.595 | – | 20.31 ± 0.25
307.86 K, x2 = 0.749 | – | 19.62 ± 0.25
308.15 K, x2 = 0 | 853.2 ± 0.2 | –
308.15 K, x2 = 0.15 | 817 ± 0.3 | –
308.15 K, x2 = 0.299 | 784.9 ± 0.3 | –
308.15 K, x2 = 0.449 | 755.8 ± 0.3 | –
308.15 K, x2 = 0.595 | 730.4 ± 0.3 | –
308.15 K, x2 = 0.749 | 706.8 ± 0.3 | –
313.15 K, x2 = 0 | 848.6 ± 0.2 | –
313.15 K, x2 = 0.15 | 812.4 ± 0.3 | –
313.15 K, x2 = 0.299 | 780.4 ± 0.3 | –
313.15 K, x2 = 0.449 | 751.3 ± 0.3 | –
313.15 K, x2 = 0.595 | 725.9 ± 0.3 | –
313.15 K, x2 = 0.749 | 702.4 ± 0.3 | –
317.86 K, x2 = 0 | – | 25.46 ± 0.28
317.86 K, x2 = 0.15 | – | 23.03 ± 0.26
317.86 K, x2 = 0.299 | – | 21.39 ± 0.25
317.86 K, x2 = 0.449 | – | 20.28 ± 0.25
317.86 K, x2 = 0.595 | – | 19.37 ± 0.24
317.86 K, x2 = 0.749 | – | 18.62 ± 0.24
318.15 K, x2 = 0 | 843.9 ± 0.2 | –
318.15 K, x2 = 0.15 | 807.8 ± 0.3 | –
318.15 K, x2 = 0.299 | 775.8 ± 0.3 | –
318.15 K, x2 = 0.449 | 746.8 ± 0.3 | –
318.15 K, x2 = 0.595 | 721.4 ± 0.3 | –
318.15 K, x2 = 0.749 | 697.9 ± 0.3 | –
323.15 K, x2 = 0 | 839.2 ± 0.2 | –
323.15 K, x2 = 0.15 | 803.1 ± 0.3 | –
323.15 K, x2 = 0.299 | 771.2 ± 0.3 | –
323.15 K, x2 = 0.449 | 742.2 ± 0.3 | –
323.15 K, x2 = 0.595 | 716.9 ± 0.3 | –
323.15 K, x2 = 0.749 | 693.4 ± 0.3 | –
327.88 K, x2 = 0 | – | 24.29 ± 0.27
327.88 K, x2 = 0.15 | – | 22.05 ± 0.26
327.88 K, x2 = 0.299 | – | 20.44 ± 0.25
327.88 K, x2 = 0.449 | – | 19.31 ± 0.24
327.88 K, x2 = 0.595 | – | 18.43 ± 0.24
327.88 K, x2 = 0.749 | – | 17.66 ± 0.23
328.15 K, x2 = 0 | 834.5 ± 0.2 | –
328.15 K, x2 = 0.15 | 798.5 ± 0.3 | –
328.15 K, x2 = 0.299 | 766.5 ± 0.3 | –
328.15 K, x2 = 0.449 | 737.6 ± 0.3 | –
328.15 K, x2 = 0.595 | 712.3 ± 0.3 | –
328.15 K, x2 = 0.749 | 688.8 ± 0.3 | –
333.15 K, x2 = 0 | 829.8 ± 0.2 | –
333.15 K, x2 = 0.15 | 793.8 ± 0.2 | –
333.15 K, x2 = 0.299 | 761.8 ± 0.3 | –
333.15 K, x2 = 0.449 | 733 ± 0.3 | –
333.15 K, x2 = 0.595 | 707.7 ± 0.3 | –
333.15 K, x2 = 0.749 | 684.2 ± 0.3 | –
